Source: patent US9980943B2, “Methods of treating muscular dystrophy” (BOARD OF REGENTS OF THE NEVADA SYSTEM OF HIGHER EDUCATION, …, priority 2013, dated 2018)

How the values were obtained:
Assay type in all cases: cell-based, mouse
[1] = test system: α7 integrin (LacZ reporter in α7βgal+/− myoblasts); assay: Myoblast α7+/LacZ integrin FDG assay (Burkin assay in myoblasts, 96-well); details: α7+/LacZ myoblasts, 96-well
[2] = test system: α7 integrin (LacZ reporter in α7+/LacZ myotubes); assay: Myotube α7 integrin FDG assay (Burkin assay in myotubes, 96-well); details: myotubes
[3] = test system: β-galactosidase in CMV-LacZ C2C12 myotubes; assay: CMV-LacZ secondary screen in C2C12 myotubes (β-Gal stabilizing assay); details: for CMV-LACZ in Myotubes, signal relative to DMSO: C2C12 CMV-LacZ myotubes, fold relative to DMSO; for CMV-LACZ in Myotubes (β-galactosidase activity relative to DMSO): CMV-LacZ C2C12 myotubes, 96-well format
In short: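 A secondary screen identifies compounds that stabilize β-gal independently of the native promoter, using CMV-LacZ C2C12 cells. Curves span 0.5–40 μM at six levels, in duplicate.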

Row | SMILES | Burkin Assay in Myoblasts, signal relative to DMSO ([1]; 0.5 uM) | Burkin Assay in Myoblasts, signal relative to DMSO ([1]; 1 uM) | Burkin Assay in Myoblasts, signal relative to DMSO ([1]; 5 uM) | Burkin Assay in Myoblasts, signal relative to DMSO ([1]; 10 uM) | CMV-LACZ in Myotubes, signal relative to DMSO ([3]; 5 uM) | CMV-LACZ in Myotubes, signal relative to DMSO ([3]; 10 uM) | CMV-LACZ in Myotubes, signal relative to DMSO ([3]; 20 uM) | CMV-LACZ in Myotubes, signal relative to DMSO ([3]; 40 uM) | Burkin Assay in Myoblasts, value relative to DMSO ([1]; 0.5 uM) | Burkin Assay in Myoblasts, value relative to DMSO ([1]; 1 uM) | Burkin Assay in Myoblasts, value relative to DMSO ([1]; 5 uM) | Burkin Assay in Myoblasts, value relative to DMSO ([1]; 10 uM) | Burkin Assay in Myoblasts, value relative to DMSO ([1]; 20 uM) | Burkin Assay in Myoblasts, value relative to DMSO ([1]; 40 uM) | Burkin Assay in Myotubes (signal relative to DMSO) ([2]; 0.5 uM) | Burkin Assay in Myotubes (signal relative to DMSO) ([2]; 1 uM) | Burkin Assay in Myotubes (signal relative to DMSO) ([2]; 5 uM) | Burkin Assay in Myotubes (signal relative to DMSO) ([2]; 10 uM) | Burkin Assay in Myotubes (signal relative to DMSO) ([2]; 20 uM) | Burkin Assay in Myotubes (signal relative to DMSO) ([2]; 40 uM) | also measured
1 | COc1ccc(S(=O)(=O)N(NC2=NS(=O)(=O)c3ccccc32)C(=O)C(C)C)cc1 [MLS000682883-01] | 0.9476 | 0.9633 | 1.011 | 0.9192 | 0.9333 | 1.084 | 1.087 | 0.8967 | – | – | – | – | – | – | – | – | – | – | – | – | Burkin Assay in Myoblasts, signal relative to DMSO ([1]; 20 uM): 0.8269; Burkin Assay in Myoblasts, signal relative to DMSO ([1]; 40 uM): 0.7379; Burkin Assay in Myotubes, α7 integrin LacZ reporter signal relative to DMSO ([2]; 0.5 uM): 0.8116; Burkin Assay in Myotubes, α7 integrin LacZ reporter signal relative to DMSO ([2]; 1 uM): 1.095; Burkin Assay in Myotubes, α7 integrin LacZ reporter signal relative to DMSO ([2]; 5 uM): 0.9936; Burkin Assay in Myotubes, α7 integrin LacZ reporter signal relative to DMSO ([2]; 10 uM): 1.01; Burkin Assay in Myotubes, α7 integrin LacZ reporter signal relative to DMSO ([2]; 20 uM): 1.102; Burkin Assay in Myotubes, α7 integrin LacZ reporter signal relative to DMSO ([2]; 40 uM): 1.094
2 | Cc1ccccc1C(=O)Nc1nnc(SC(C)C)s1 [MLS000683174-01] | – | – | – | – | 1.156 | 1.0866 | 1.035 | 1.238 | 1.02 | 0.9176 | 1.02 | 1.014 | 1.028 | 0.8059 | 1.145 | 0.9165 | 1.007 | 0.8907 | 1.081 | 0.9864 | –
3 | CC1CCCCN1c1ncnc(N)c1[N+](=O)[O-] (centres unmarked) [MLS000683234-01] | 1.187 | 0.8341 | 1.134 | 1.152 | 0.8204 | 0.8111 | 0.6952 | 0.93 | – | – | – | – | – | – | – | – | – | – | – | – | Burkin Assay in Myoblasts, signal relative to DMSO ([1]; 20 uM): 1.067; Burkin Assay in Myoblasts, signal relative to DMSO ([1]; 40 uM): 1.21; Burkin Assay in Myotubes, α7 integrin LacZ reporter signal relative to DMSO ([2]; 0.5 uM): 0.9165; Burkin Assay in Myotubes, α7 integrin LacZ reporter signal relative to DMSO ([2]; 1 uM): 1.053; Burkin Assay in Myotubes, α7 integrin LacZ reporter signal relative to DMSO ([2]; 5 uM): 1.091; Burkin Assay in Myotubes, α7 integrin LacZ reporter signal relative to DMSO ([2]; 10 uM): 1.273; Burkin Assay in Myotubes, α7 integrin LacZ reporter signal relative to DMSO ([2]; 20 uM): 1.414; Burkin Assay in Myotubes, α7 integrin LacZ reporter signal relative to DMSO ([2]; 40 uM): 1.631
4 | CCCC(=O)Nc1ccccc1NC(=O)c1ccc(OCC)cc1 [MLS000685139-01] | – | – | – | – | – | – | – | – | 0.8234 | 0.6285 | 0.8416 | 0.776 | 0.9893 | 0.9848 | 0.8703 | 0.9202 | 1.128 | 1.24 | 1.102 | 1.267 | CMV-LACZ in Myotubes (β-galactosidase activity relative to DMSO) ([3]; 5 uM): 0.9362; CMV-LACZ in Myotubes (β-galactosidase activity relative to DMSO) ([3]; 10 uM): 1.036; CMV-LACZ in Myotubes (β-galactosidase activity relative to DMSO) ([3]; 20 uM): 1.031; CMV-LACZ in Myotubes (β-galactosidase activity relative to DMSO) ([3]; 40 uM): 0.9387
5 | Cc1ccc(NCc2nnc(SCC(=O)Nc3nnc(C)s3)n2C)cc1 [MLS000688437-01] | 0.8901 | 0.8878 | 0.8233 | 0.9077 | 1.232 | 0.9346 | 1.03 | 1.051 | – | – | – | – | – | – | – | – | – | – | – | – | Burkin Assay in Myoblasts, signal relative to DMSO ([1]; 20 uM): 0.8203; Burkin Assay in Myoblasts, signal relative to DMSO ([1]; 40 uM): 0.8064; Burkin Assay in Myotubes, α7 integrin LacZ reporter signal relative to DMSO ([2]; 0.5 uM): 1.076; Burkin Assay in Myotubes, α7 integrin LacZ reporter signal relative to DMSO ([2]; 1 uM): 1.194; Burkin Assay in Myotubes, α7 integrin LacZ reporter signal relative to DMSO ([2]; 5 uM): 1.124; Burkin Assay in Myotubes, α7 integrin LacZ reporter signal relative to DMSO ([2]; 10 uM): 1.102; Burkin Assay in Myotubes, α7 integrin LacZ reporter signal relative to DMSO ([2]; 20 uM): 0.9929; Burkin Assay in Myotubes, α7 integrin LacZ reporter signal relative to DMSO ([2]; 40 uM): 1.034
6 | CCS(=O)(=O)N1CCN(c2ccc([N+](=O)[O-])c(NCC3CCCO3)c2)CC1 (centres unmarked) [MLS000693370-01] | – | – | – | – | – | – | – | – | – | – | – | – | – | – | – | – | – | – | – | – | fold induction at 0.5 µM ([1]; Mus musculus, Myoblast, 48 h, 0.5 uM, read-out: Burkin Assay in Myoblasts, value relative to DMSO): 0.864; fold induction at 1 µM ([1]; Mus musculus, Myoblast, 48 h, 1 uM, read-out: Burkin Assay in Myoblasts, value relative to DMSO): 0.8; fold induction at 5 µM ([1]; Mus musculus, Myoblast, 48 h, 5 uM, read-out: Burkin Assay in Myoblasts, value relative to DMSO): 0.887; fold induction at 10 µM ([1]; Mus musculus, Myoblast, 48 h, 10 uM, read-out: Burkin Assay in Myoblasts, value relative to DMSO): 1.06; fold induction at 20 µM ([1]; Mus musculus, Myoblast, 48 h, 20 uM, read-out: Burkin Assay in Myoblasts, value relative to DMSO): 0.951; fold induction at 40 µM ([1]; Mus musculus, Myoblast, 48 h, 40 uM, read-out: Burkin Assay in Myoblasts, value relative to DMSO): 0.937; fold induction at 0.5 µM ([2]; Mus musculus, Myotube, 0.5 uM, read-out: Burkin Assay in Myotubes (signal relative to DMSO)): 1.11; fold induction at 1 µM ([2]; Mus musculus, Myotube, 1 uM, read-out: Burkin Assay in Myotubes (signal relative to DMSO)): 1.13; fold induction at 5 µM ([2]; Mus musculus, Myotube, 5 uM, read-out: Burkin Assay in Myotubes (signal relative to DMSO)): 1.16; fold induction at 10 µM ([2]; Mus musculus, Myotube, 10 uM, read-out: Burkin Assay in Myotubes (signal relative to DMSO)): 1.28; fold induction at 20 µM ([2]; Mus musculus, Myotube, 20 uM, read-out: Burkin Assay in Myotubes (signal relative to DMSO)): 1.15; fold induction at 40 µM ([2]; Mus musculus, Myotube, 40 uM, read-out: Burkin Assay in Myotubes (signal relative to DMSO)): 1.25; CMV-LACZ in Myotubes (β-galactosidase activity relative to DMSO) ([3]; 5 uM): 0.9783; CMV-LACZ in Myotubes (β-galactosidase activity relative to DMSO) ([3]; 10 uM): 0.9621; CMV-LACZ in Myotubes (β-galactosidase activity relative to DMSO) ([3]; 20 uM): 0.9947; CMV-LACZ in Myotubes (β-galactosidase activity relative to DMSO) ([3]; 40 uM): 1.1136
7 | C=CCN(CC=C)C(=O)c1ccc(OC2CCN(S(=O)(=O)N(C)C)CC2)cc1 [MLS000693729-01] | – | – | – | – | 0.9722 | 1.057 | 0.9031 | 0.879 | 0.9069 | 0.7902 | 0.8647 | 0.9088 | 0.9136 | 0.9194 | 0.8219 | 0.7707 | 1.119 | 1.144 | 0.9682 | 1.056 | –
8 | CCS(=O)(=O)N1CCCC(C(=O)c2ccc(OC)cc2C)C1 (centres unmarked) [MLS000693747-01] | – | – | – | – | – | – | – | – | 1.114 | 1.036 | 1.0596 | 1.088 | 0.8796 | 0.9175 | 1.061 | 0.7194 | 1.433 | 0.9111 | 1.122 | 1.0456 | CMV-LACZ in Myotubes (β-galactosidase activity relative to DMSO) ([3]; 5 uM): 0.9962; CMV-LACZ in Myotubes (β-galactosidase activity relative to DMSO) ([3]; 10 uM): 0.9523; CMV-LACZ in Myotubes (β-galactosidase activity relative to DMSO) ([3]; 20 uM): 0.9693; CMV-LACZ in Myotubes (β-galactosidase activity relative to DMSO) ([3]; 40 uM): 1.043
